Measurements from patent publication US6528545B1, “Preparations comprising a fluorocarbon or highly fluorinated compound and a lipophilic/fluorophilic organic compound, and their uses” (priority 1991, dated 2003).

Columns and labels:
[1] = Particle size and ageing stability of perfluorooctyl bromide/lecithin emulsions (photosedimentation); format: physicochemical; conditions: 90% w/v emulsion of perfluorooctyl bromide
Description: 32 g of egg-yolk lecithin and a mixture of salts whose composition is shown in detail in Table I was dispersed with Ultra Turrax under nitrogen (24000 t/min, 10 min) in 393 mL of injectable water. Perfluorooctyl bromide (PFOB, Perflubron®) (375 mL) was added slowly to this dispersion under nitrogen. The mixture was dispersed for 10 mn at 30-40° C. The coarse emulsion obtained was passed under nitrogen through a microfluidizer (M110F). After 10 passes under a pressure of 12000 psi in the chambers cooled to 35° C., the emulsion was recovered, filled in flasks then sterilized at 121° C. for 15 mn. The ageing was monitored at 5,25 and 40° C. (Table II and FIG. 1) and the average size of the particles measured by photosedimentation.
32 g of egg-yolk lecithin and a mixture of salts of the above composition (Table I) was dispersed under nitrogen using an Ultra Turrax T50 (24000 t/min, 10 min) in 379 mL of injectable water at 30-40° C. F6H8E (14.3 mL) was slowly added to this dispersion, which was stirred for 2 min. Perfluorooctyl bromide (375 mL) was then slowly added. The whole was emulsified for 10 min at 24000 t/min at 30-40° C. The coarse emulsion obtained was run under nitrogen through the microfluidizer and after 10 passes (12000 psi, 35° C.) the emulsion was filled in vials, sterilized and stored at 5,25 and 40° C. (Table II and FIG. 1). […]
The same protocol described in the example of Reference A was used but for 16 g of egg-yolk lecithin. The aging was monitored at 40° C. (Table II and FIG. 4).
The protocol described in example 1 was used with 385 mL of water, 8.38 mL of F8H8E, 16 g of lecithin and 375 mL of perfluorooctyl bromide. After microfluidization, the emulsion was sterilized and stored at 40° C. (Table II and FIG. 4). EXAMPLE 5 […]
The same protocol described in example of reference A was used but for 8 g of egg-yolk lecithin. The aging was monitored at 40° C. (Table II and FIG. 6 ) and the average size of the particles was measured by photosedimentation.
The protocol described in example 1 was used with 382 mL of water, 4,19 mL of F8H8E, 8 g of lecithin and 375 mL of perfluorooctyl bromide. After microfluidization the emulsion was sterilized and stored at 40° C. (Table II and FIG. 6).

[2] = Facilitation of emulsification of perfluorooctyl bromide: fine particles versus number of microfluidizer passes; format: physicochemical; conditions: perfluorooctyl bromide/lecithin emulsion, fine particles d<0,12 μm (FIG. 9)
Description: The compounds used in the methods of the invention facilitate the formation of the emulsion and lead to emulsions with fine particle size after a reduced number of passes or a reduced amount of energy. When the compound F8H8E of the invention is added to perfluorooctyl bromide/lecithin emulsion, 30% of fine particles are obtained after 10 passes. By comparison, the reference emulsion without the compounds of the invention requires 20 passes to obtain the same percentage of fine particles (FIG. 9).
The protocol described in Example 1 was used. The average particle size was measured during microfluidization after 1, 2, 3, 4, 5, 7 and 10 passes. The percentage of fine particles (d<0,12 μm) and of coarse particle (d>0,6 μm) was evaluated.
The same protocol as for reference emulsion E was used but for the addition of (F8H8E) as described in example 2.

[3] = cited from earlier work

particle size ([1]; 0.1% w/v EYP and an equimolar amount of F8H8E) | particle size ([1]; 0.2% w/v of EYP and an equimolar amount of F8H8E) | particle size ([1]; 1% w/v of EYP and 0.7% w/v of F8H8E (FIG. 6)) | particle size ([1]; 2% w/v of EYP and 1.4% w/v of F8H8E (FIG. 4)) | number of passes to obtain 30% of fine particles [2] [passes] | Structure (SMILES) | half retention time in liver (comparison value) [3] [days]
about 2.75 μm | about 1.5 μm | about 0.38 μm | about 0.23 μm | 10 | CCCCCCCCC=CC(F)(F)C(F)(F)C(F)(F)C(F)(F)C(F)(F)C(F)(F)C(F)(F)C(F)(F)F [Example F8H8E, C8F17CH═CHC8H17] | –
– | – | – | – | – | FC(F)(F)C(F)(F)C(F)(F)N(C(F)(F)C(F)(F)C(F)(F)F)C(F)(F)C(F)(F)C(F)(F)F [perfluorotripropylamine] | 65
